Experimental data reported in patent US20200113852A1, “METHODS OF PATIENT SELECTION AND TREATING TRXR- OR PRDX-OVEREXPRESSED CANCERS” (TRIACT THERAPEUTICS, INC., priority 2017, published 2020).
Read-outs that look alike come from different tables or passages of the source.

Tests used:
MDA-MB-453 cells = experiment: Cytotoxicity assay (WST-1 cell viability); settings: for IC50: Homo sapiens
Experimental: (§1) Cell viability following drug treatments was assessed using WST-1 cell proliferation assay (Roche) Briefly, cells were plated into 96-well plates with 8,000 (HCT116) or 20,000 (MDA-MB-453) cells per well and allowed to attach overnight. Cells were then preincubated for 5 h in the presence or absence of 1 mM BSO. […] After 3 h of incubation at 37° C., the amount of formazan dye was quantified by measuring the optical density at 450 nm with a scanning multiwell spectrophotometer (PerkinElmer).
as §1, with “(Roche).” for “(Roche)”

[1] = molecular target: T1, TrxR1 and other protein targets in HCT116 cells (Homo sapiens, UniProt Q16881); settings: 90-min preincubation of GSH-depleted HCT116 (auranofin 10 μM or Iniparib 100 μM)
T1 sequence (Q16881 1-499 isoform Q16881-5): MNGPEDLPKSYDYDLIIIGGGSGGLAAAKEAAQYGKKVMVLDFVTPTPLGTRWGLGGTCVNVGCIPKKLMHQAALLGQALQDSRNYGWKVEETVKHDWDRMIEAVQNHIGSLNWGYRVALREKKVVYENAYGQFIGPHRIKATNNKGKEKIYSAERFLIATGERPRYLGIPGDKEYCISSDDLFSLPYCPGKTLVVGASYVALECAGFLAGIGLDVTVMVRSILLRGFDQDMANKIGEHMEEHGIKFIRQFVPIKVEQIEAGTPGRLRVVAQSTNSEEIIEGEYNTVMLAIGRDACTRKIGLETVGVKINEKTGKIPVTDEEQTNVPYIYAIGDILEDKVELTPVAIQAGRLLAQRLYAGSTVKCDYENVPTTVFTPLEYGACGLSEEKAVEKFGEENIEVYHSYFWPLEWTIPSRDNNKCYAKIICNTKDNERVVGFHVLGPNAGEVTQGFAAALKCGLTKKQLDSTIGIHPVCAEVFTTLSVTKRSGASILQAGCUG
Experimental: TrxR1 immunoprecipitates (FIG. 17A) and cells extracts (FIG. 17B) were analysed by SDS-PAGE under reducing conditions followed by streptavidin-HRP blot and TrxR1 blot.
Clarified octyl-glucoside lysates (12 mg proteins) were combined with anti-TrxR1 or anti-TrxR2 monoclonal antibody coupled to protein G plus agarose (Santa Cruz Biotechnology) and mixed overnight at 4° C. Beads were recovered by centrifugation for 2 min at 1,000×g and extensively washed in octyl-glucoside lysis buffer. Precipitated complexes were eluted by incubating the beads for 20 min at 60° C. in SDS sample buffer. The amount of immunoprecipitated TrxR1 and TrxR2 was systematically checked by blots anti-TrxR1 and anti-TrxR2, respectively.

TrxR in MDA-MB-231 cells = experiment: Endogenous TrxR activity (DTNB reduction assay); format: cell-based, human; settings: GSH-depleted MDA-MB-231; iniparib 100 μM, Auranofin 1 μM, up to 4 h
Description: Initial velocities were derived from linear regression analyses and then plotted in double reciprocal plots to obtain the half time of TrxR inhibition using an one phase exponential decay analysis (Prism, GraphPad software).

[2] = test system: Trx, JNK, p38MAPK, PARP in HCT116 cells; experiment: Cell death signaling western blots (Trx oxidation, phospho-JNK, phospho-p38MAPK, cleaved-PARP)
Experimental: Cells extracts were analyzed by SDS-PAGE either under reducing conditions or under non-reducing conditions in the case of Trx blot followed by blots anti-phospho-JNK, anti-phospho-p38MAPK, anti-cleaved-PARP and anti-Trx. Results are representative of three independent experiments.
After 2 h at 4° C., lysates were clarified by centrifugation and protein amounts were measured using the BCA assay (Pierce, Thermo scientific).
Equal amounts of proteins were resolved by SDS-PAGE under either non-reducing or reducing (5% 2-mercaptoethanol, 20 min at 60° C.) conditions, using 4-20% gels (Novex, Invitrogen), then subjected to semi-dry electrophoretic transfer onto nitrocellulose membranes.

TrxR in MDA-MB-453 cells = experiment: Endogenous TrxR activity in cell lysates (DTNB reduction assay); format: cell-based, human; settings: MDA-MB-453 cells without GSH depletion
[3] = test system: newly diagnosed glioblastoma multiforme (GBM); experiment: Phase II clinical trial GBM, overall survival; format: in vivo, human
Description: For assessing the efficacy of the treatment in terms of overall survival, the overall failure rate were estimated and compared to the failure rate of 0.6 per-person year of follow-up regarding the Phase III trial done by Stupp et al. in the same patient population treated with RT plus concomitant and adjuvant temozolomide.
The primary endpoint was death due to all causes. The survival time is defined from time of histological diagnosis to death occurrence. The overall failure rate was expressed as hazard of failure per person-year of follow-up. The total patient population for this part of the study was defined as all patients who have met the eligibility criteria, not met ineligibility criteria, and signed patient informed consent.
It yield above 90% power to detect a 30% reduction in hazard rate with observed hazard ratio of 0.7 (0.42 vs. 0.6) at an alpha level of 0.1 to be significant. The overall failure rate was estimated by dividing the number of events (deaths) by the total exposure time in the study cohort along with 95% confidence intervals. Survival probability and median time of survival was calculated using Kaplan-Meier method.

[4] = test system: cytosol and mitochondria of HCT116 cells; experiment: Subcellular fractionation: Iniparib-biotin labeling of cytosol and mitochondria; format: cell-based, human
Experimental: Cells were homogenized in an ice-cold buffer containing 10 mM Tris-HCl, pH 7.5, protease and phosphatase inhibitors, and 250 mM sucrose in the case of mitochondria preparation, using a glass dounce tissue grinder (30 strokes). After centrifugation at 1,000×g for 5 min at 4° C., homogenates supernatants were collected. For cytosol preparation the 1000×g supernatants were submitted to differential centrifugation in Tris-HCl buffer: a first centrifugation was carried out at 22,000×g for 20 min and the resulting supernatants were further centrifuged at 100,000×g for 60 min. The final supernatants were referred to as the cytosolic fractions.
FIG. 11A and FIG. 11B show HCT116 cells were pre-treated or not for 48 h with 1 mM BSO. Thereafter Iniparib-biotin at 100 μM was added for 4 h. Cell homogenates were then processed for cytosol preparation (FIG. 11A) or mitochondria immuno-purification (FIG. 11B).
Cell homogenates were then processed for cytosol preparation or mitochondria immuno-purification. […]

TrxR1 = molecular target: T2, TrxR1 (Homo sapiens, UniProt Q16881); experiment: In vitro Iniparib-biotin TrxR adduct formation on immunoprecipitated TrxR with or without NADPH; format: binding
T2 sequence (Q16881 1-499 isoform Q16881-5): T1 sequence (Q16881 1-499 isoform Q16881-5)

Row | SMILES | IC50 (MDA-MB-453 cells; MDA-MB-453, read-out: IC50 (cytotoxicity), MDA-MB-453, GSH depletion (Example 2)) [µM] | IC50 (MDA-MB-453 cells; MDA-MB-453, read-out: IC50 (cytotoxicity), MDA-MB-453, absence of BSO (Example 2)) [µM] | IC50 (MDA-MB-453 cells; MDA-MB-453, read-out: IC50 (cytotoxicity), MDA-MB-453 after GSH depletion with BSO (Example 1)) [µM] | IC50 (MDA-MB-453 cells; MDA-MB-453, read-out: IC50 (cytotoxicity), MDA-MB-453 without BSO pre-treatment, 48 h (Example 1)) [µM] | augmentation of cytotoxicity by GSH depletion (MDA-MB-453 cells; MDA-MB-453, BSO vs no BSO) [fold] | TrxR1 labeling with Iniparib-biotin after preincubation [1] | TrxR reductase activity (TrxR in MDA-MB-231 cells) | JNK activation, time of occurrence ([2]; GSH-depleted HCT116, 100 μM, persisted until 24 h) [h] | p38MAPK and JNK phosphorylation ([2]; GSH-depleted HCT116, 7 h or 24 h) | Trx oxidation ([2]; GSH-depleted HCT116, 7 h or 24 h, 100 μM Iniparib, 1 μM Auranofin, 100 nM Staurosporin) | TrxR reductase activity (TrxR in MDA-MB-453 cells) | 2 Year Survival ([3]; Phase 2, N = 76) [% patients] | 3 Year Survival ([3]; Phase 2, N = 76) [% patients] | reduced HR versus Stupp et al 2005 ([3]; single arm phase 2) [%] | in vitro labeling of isolated cytosolic fraction ([4]; 30 μM Iniparib-biotin, with or without NADH/NADPH) | protein targets in isolated cytosol and mitochondria ([4]; fractions from Iniparib-biotin treated HCT116 cells) | adduct formation with TrxR1 (TrxR1; NADPH provided) | covalent labeling of TrxR1 (TrxR1; absence of NADPH)
1 | NC(=O)c1ccc(I)c([N+](=O)[O-])c1 [Iniparib, 4-iodo-3-nitrobenzamide] | 16.2 | 85 | 17.8 ± 2.9 | 84 ± 6.5 | 4 | only a partial inhibition | inhibition of the TrxR reductase activity | 6 | activation of both p38MAPK and JNK phosphorylation | oligomeric/oxidized form of Trx accumulated | reductase activity inhibition | 42.1 | 23.7 | ≥ 25 |  |  |  | 
2 | O=C(CCCC[C@@H]1SC[C@@H]2NC(=O)N[C@@H]21)NCCNC(=O)c1ccc(I)c([N+](=O)[O-])c1 [Iniparib-biotin, 4-iodo-3-nitro-N-(2-(5-((3 aS,4S,6aR)-2-oxohexahydro-1H-thieno[3,4-d]imidazol-4-yl)pentanamido)ethyl)benzamide] |  |  |  |  |  |  |  |  |  |  |  |  |  |  | mainly when NADPH was added | present in both cell compartments | able to form adducts with TrxR1 to a large extent | almost no covalent labeling
